According to US8716292B2, “Riminophenazines with 2-(heteroaryl)amino substituents and their anti-microbial activity” (priority 2010, dated 2014):
Values after ≈ are worked out from the molar mass of the structure shown.

System: Mycobacterium tuberculosis H37Rv strains
Experiment: In vitro assay for antimicrobial susceptibility (microplate Alamar blue MIC)
Assay type: cell-based
Settings: Mycobacterium tuberculosis, H37RV, 7H9, Alamar blue, inhibition ≧90%; read-out: MIC (μg/mL) against H37Rv

Question: With `COC1CCC(/N=c2\cc3n(-c4ccc(F)c(F)c4)c4ccccc4nc-3cc2Nc2ncccn2)CC1` (stereo not drawn) [TBI-1433, 5-(3,4-Difluorophenyl)-3-(4-methoxycyclohexyl)imino-2-(pyrimidin-2-yl)amino-3,5-dihydrophenazine] as the compound, how does the MIC read?
Answer: 0.086 µg/mL (≈ 0.168 µM)

Question: Which MIC does the source give for `Fc1ccc(-n2c3c/c(=N\C4CCOCC4)c(Nc4cnccn4)cc-3nc3ccccc32)cc1` [TBI-1085, 5-(4-Fluorophenyl)-3-(4-tetrahydropyranyl)imino-2-(pyrazin-2-yl)amino-3,5-dihydrophenazine] here?
Answer: 0.038 µg/mL (≈ 0.0815 µM)

Question: `CC(C)/N=c1\cc2n(-c3ccc(F)cc3)c3ccccc3nc-2cc1Nc1cnccn1` [TBI-1055, 5-(4-Fluorophenyl)-3-(1-methylethyl)imino-2-(pyrazin-2-yl)amino-3,5-dihydrophenazine] was tested. Which MIC did it give?
Answer: 0.022 µg/mL (≈ 0.0518 µM)

Question: Which MIC does the source give for `CC(C)/N=c1\cc2n(-c3ccc(OC(F)(F)F)cc3)c3ccccc3nc-2cc1Nc1ccccn1` [TBI-952, 5-(4-Trifluoromethoxyphenyl)-3-(1-methylethyl)imino-2-(2-pyridyl)amino-3,5-dihydrophenazine] here?
Answer: 0.093 µg/mL (≈ 0.19 µM)

Question: `COC1CCC(/N=c2\cc3n(-c4ccc(F)cc4)c4ccccc4nc-3cc2Nc2ncccn2)CC1` (stereo not drawn) [TBI-1080, 5-(4-Fluorophenyl)-3-(4-methoxycyclohexyl)imino-2-(pyrimidin-2-yl)amino-3,5-dihydrophenazine] was tested. Which MIC did it give?
Answer: 0.029 µg/mL (≈ 0.0586 µM)

Same assay, conditions: Mycobacterium tuberculosis, H37RV, in vitro, Mycobacterium tuberculosis H37Rv strains; read-out: MIC (μg/mL) against H37Rv

Question: How did the MIC turn out when `Clc1ccc(-n2c3c/c(=N\C4CCCCC4)c(Nc4cccnc4)cc-3nc3ccccc32)c(Cl)c1` [TBI-368, 5-(2,4-Dichlorophenyl)-3-cyclohexylimino-2-(3-pyridyl)amino-3,5-dihydrophenazine] was run?
Answer: 0.054 µg/mL (≈ 0.105 µM)

Question: With `FC(F)(F)c1ccc(-n2c3c/c(=N\CCN4CCOCC4)c(Nc4cccnc4)cc-3nc3ccccc32)cc1` [TBI-690, 5-(4-Trifluoromethylphenyl)-3-(2-morpholinoethyl)imino-2-(3-pyridyl)amino-3,5-dihydrophenazine] as the compound, how does the MIC read?
Answer: 0.125 µg/mL (≈ 0.23 µM)

Question: With `COc1ncccc1Nc1cc2nc3ccccc3n(-c3ccc(Cl)cc3)c-2c/c1=N\C1CCN(C)CC1` [TBI-440, 5-(4-Chlorophenyl)-3-(N-methyl-4-piperidyl)imino-2-(2-methoxy-3-pyridyl)amino-3,5-dihydrophenazine] as the compound, how does the MIC read?
Answer: 0.06 µg/mL (≈ 0.114 µM)

Question: How did the MIC turn out when `COc1ncccc1Nc1cc2nc3ccccc3n(-c3ccc(OC(F)(F)F)cc3)c-2c/c1=N\C1CC1` [TBI-364, 5-(4-Trifluoromethoxyphenyl)-3-cyclopropylimino-2-(2-methoxy-3-pyridyl)amino-3,5-dihydrophenazine] was run?
Answer: 0.015 µg/mL (≈ 0.029 µM)

Question: Which MIC does the source give for `COC1CCC(/N=c2\cc3n(-c4ccc(Cl)c(Cl)c4)c4cc(F)ccc4nc-3cc2Nc2ccc(C)nc2)CC1` (stereo not drawn) [TBI-897, 7-Fluoro-5-(3,4-dichlorophenyl)-3-(4-methoxycyclohexyl)imino-2-(6-methyl-3-pyridyl)amino-3,5-dihydrophenazine] here?
Answer: 0.25 µg/mL (≈ 0.434 µM)

Question: Which MIC does the source give for `Cc1ncccc1Nc1cc2nc3ccccc3n(-c3cccc(OC(F)(F)F)c3)c-2c/c1=N\C1CCOCC1` [TBI-1035, 5-(3-Trifluoromethoxyphenyl) 3-(4-tetrahydropyranyl)imino-2-(2-methyl-3-pyridyl)amino-3,5-dihydrophenazine] here?
Answer: 0.062 µg/mL (≈ 0.114 µM)

Question: How did the MIC turn out when `CC(C)/N=c1\cc2n(-c3cccc(Cl)c3)c3ccccc3nc-2cc1Nc1cccnc1` [TBI-810, 5-(3-Chlorophenyl)-3-(1-methylethyl)imino-2-(3-pyridyl)amino-3,5-dihydrophenazine] was run?
Answer: 0.103 µg/mL (≈ 0.234 µM)

Question: `Fc1ccc(-n2c3c/c(=N\C4CCC4)c(Nc4cccnc4)cc-3nc3ccccc32)cc1` [TBI-923, 5-(4-Fluorophenyl)-3-cyclobutylimino-2-(3-pyridyl)amino-3,5-dihydrophenazine] was tested. Which MIC did it give?
Answer: 0.021 µg/mL (≈ 0.0482 µM)

Question: With `Brc1ccc(-n2c3c/c(=N\C4CCC4)c(Nc4cccnc4)cc-3nc3ccccc32)cc1` [TBI-098, 5-(4-Bromophenyl)-3-cyclobutylimino-2-(3-pyridyl)amino-3,5-dihydrophenazine] as the compound, how does the MIC read?
Answer: 0.028 µg/mL (≈ 0.0564 µM)

Question: With `COc1ncccc1Nc1cc2nc3ccccc3n(-c3ccccc3OC(F)(F)F)c-2c/c1=N\C1CCCCC1` [TBI-1047, 5-(2-Trifluoromethoxyphenyl)-3-cyclohexylimino-2-(2-methoxy-3-pyridyl)amino-3,5-dihydrophenazine] as the compound, how does the MIC read?
Answer: 0.465 µg/mL (≈ 0.831 µM)

Question: For `COC1CCC(/N=c2\cc3n(-c4ccc(C)cc4)c4ccccc4nc-3cc2Nc2cncc(C)c2)CC1` (stereo not drawn) [TBI-330, 5-(4-Methylphenyl)-3-(4-methoxycyclohexyl)imino-2-(5-methyl-3-pyridyl)amino-3,5-dihydrophenazine], which MIC is on record?
Answer: 0.035 µg/mL (≈ 0.0695 µM)

Question: How did the MIC turn out when `COc1ncccc1Nc1cc2nc3ccccc3n(-c3ccccc3)c-2c/c1=N\C(C)C` [TBI-061, 5-Phenyl-3-(1-methylethyl)imino-2-(2-methoxy-3-pyridyl)amino-3,5-dihydrophenazine] was run?
Answer: 0.06 µg/mL (≈ 0.138 µM)

Question: For `Cc1ccc(Nc2cc3nc4ccccc4n(-c4ccc(Cl)cc4)c-3c/c2=N\C2CCN(C)CC2)cn1` [TBI-446, 5-(4-Chlorophenyl)-3-(N-methyl-4-piperidyl)imino-2-(6-methyl-3-pyridyl)amino-3,5-dihydrophenazine], which MIC is on record?
Answer: 0.016 µg/mL (≈ 0.0314 µM)

Question: With `COc1ccc2nc3cc(Nc4cccnc4OC)/c(=N/C4CC4)cc-3n(-c3ccc(Cl)cc3)c2c1` [TBI-894, 7-Methoxy-5-(4-chlorophenyl)-3-cyclopropylimino-2-(2-methoxy-3-pyridyl)amino-3,5-dihydrophenazine] as the compound, how does the MIC read?
Answer: 0.06 µg/mL (≈ 0.12 µM)

Question: For `Cc1cncc(Nc2cc3nc4ccccc4n(-c4ccc(C(F)(F)F)cc4)c-3c/c2=N\C2CCC(O)CC2)c1` (stereo not drawn) [TBI-727, 5-(4-Trifluoromethylphenyl)-3-(4-hydroxycyclohexyl)imino-2-(5-methyl-3-pyridyl)amino-3,5-dihydrophenazine], which MIC is on record?
Answer: 0.405 µg/mL (≈ 0.745 µM)

Question: How did the MIC turn out when `Cc1ncccc1Nc1cc2nc3ccccc3n(-c3ccc(Br)cc3)c-2c/c1=N\C(C)C` [TBI-507, 5-(4-Bromophenyl)-3-(1-methylethyl)imino-2-(2-methyl-3-pyridyl)amino-3,5-dihydrophenazine] was run?
Answer: 0.062 µg/mL (≈ 0.124 µM)

Question: `Cc1ccc(Nc2cc3nc4ccccc4n(-c4ccc(F)cc4)c-3c/c2=N\C2CCOCC2)cn1` [TBI-900, 5-(4-Fluorophenyl)-3-(4-tetrahydropyranyl)imino-2-(6-methyl-3-pyridyl)amino-3,5-dihydrophenazine] was tested. Which MIC did it give?
Answer: 0.125 µg/mL (≈ 0.261 µM)

Question: With `Cc1ccc(Nc2cc3nc4ccccc4n(-c4ccc(F)cc4)c-3c/c2=N\CC2CCCN(C)C2)cn1` (stereo not drawn) [TBI-902, 5-(4-Fluorophenyl)-3-(N-methyl-3-piperidylmethyl)imino-2-(6-methyl-3-pyridyl)amino-3,5-dihydrophenazine] as the compound, how does the MIC read?
Answer: 0.058 µg/mL (≈ 0.114 µM)

Question: `Cc1ccc(-n2c3c/c(=N\C(C)C)c(Nc4ccc(C)nc4)cc-3nc3ccccc32)cc1` [TBI-315, 5-(4-Methylphenyl)-3-(1-methylethyl)imino-2-(6-methyl-3-pyridyl)amino-3,5-dihydrophenazine] was tested. Which MIC did it give?
Answer: 0.057 µg/mL (≈ 0.131 µM)

Question: How did the MIC turn out when `FC(F)(F)Oc1cccc(-n2c3c/c(=N\C4CCC4)c(Nc4cccnc4)cc-3nc3ccccc32)c1` [TBI-1027, 5-(3-Trifluoromethoxyphenyl)-3-cyclobutylimino-2-(3-pyridyl)amino-3,5-dihydrophenazine] was run?
Answer: 0.383 µg/mL (≈ 0.764 µM)

Question: For `COC1CCC(/N=c2\cc3n(-c4cccc(OC(F)(F)F)c4)c4ccccc4nc-3cc2Nc2cccnc2C)CC1` (stereo not drawn) [TBI-1033, 5-(3-Trifluoromethoxyphenyl)-3-(4-methoxycyclohexyl)imino-2-(2-methyl-3-pyridyl)amino-3,5-dihydrophenazine], which MIC is on record?
Answer: 0.242 µg/mL (≈ 0.422 µM)

Question: For `Fc1ccc(-n2c3c/c(=N\C4CCOCC4)c(Nc4cccnc4)cc-3nc3ccccc32)cc1` [TBI-681, 5-(4-Fluorophenyl)-3-(4-tetrahydropyranyl)imino-2-(3-pyridyl)amino-3,5-dihydrophenazine], which MIC is on record?
Answer: 0.06 µg/mL (≈ 0.129 µM)
